The record followed here is ChEMBL document CHEMBL1135740, “Design, synthesis, and activity of a novel series of factor Xa inhibitors: optimization of arylamidine groups” (J Med Chem, 2002).

The target of assay [1] is Prothrombin (Homo sapiens, UniProt P00734). The assay can be described thus: Inhibitory constant against human coagulation factor II (thrombin) for selectivity within coagulation cascade.
Assay [2] has as its target Coagulation factor X (Homo sapiens, UniProt P00742). The assay can be described thus: Inhibitory constant against human coagulation factor Xa (fXa).
The target in assay [3] is T1, Serine protease 1 (Bos taurus, UniProt P00760).
T1 sequence (P00760 whole entry): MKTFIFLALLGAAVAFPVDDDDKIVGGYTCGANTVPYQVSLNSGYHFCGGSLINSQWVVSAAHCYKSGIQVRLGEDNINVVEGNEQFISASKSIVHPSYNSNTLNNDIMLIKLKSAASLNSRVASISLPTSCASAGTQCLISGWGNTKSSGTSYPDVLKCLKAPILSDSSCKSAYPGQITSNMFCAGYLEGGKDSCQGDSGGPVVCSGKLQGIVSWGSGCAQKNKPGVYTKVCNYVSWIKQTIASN
The assay can be described thus: Inhibitory constant against bovine trypsin for general specificity against serine proteases.

pKi: −log10 of the molar value.

Sequence of Coagulation factor X (P00742 41-179 limits assumed): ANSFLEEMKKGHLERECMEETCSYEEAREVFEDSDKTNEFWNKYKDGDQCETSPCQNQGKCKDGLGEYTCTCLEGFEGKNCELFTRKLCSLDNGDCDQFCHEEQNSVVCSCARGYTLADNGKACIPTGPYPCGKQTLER
Sequence of Coagulation factor X (P00742 235-488 limits assumed): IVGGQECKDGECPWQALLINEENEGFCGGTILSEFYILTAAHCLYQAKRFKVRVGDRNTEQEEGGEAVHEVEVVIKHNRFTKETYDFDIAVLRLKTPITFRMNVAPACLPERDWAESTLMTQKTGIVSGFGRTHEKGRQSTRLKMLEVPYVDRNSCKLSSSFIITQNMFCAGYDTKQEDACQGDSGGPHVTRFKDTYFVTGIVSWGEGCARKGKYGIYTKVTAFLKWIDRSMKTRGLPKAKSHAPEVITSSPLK

As a reminder, the pKi is the Ki on a negative log10 scale, so that one unit is a factor of ten. For `Cc1c(F)c(Oc2cccc(C(=N)N)c2)nc(Oc2cccc(-n3ccnc3)c2)c1F`, the negative logarithm of the Ki (pKi) was less than 5.30 in assay [1], 6.90 in assay [2] and 5.32 in assay [3].
On the same counts, the results for `Cc1c(F)c(Oc2cccc(C(=N)N)c2)nc(Oc2cccc(C(=O)O)c2)c1F` are less than 5.30, 5.30 and less than 5.30.
For `Cc1c(F)c(Oc2cccc(OC(C)C)c2)nc(Oc2cccc(C(=N)N)c2)c1F` the same measures were 5.28, 6.21 and 5.54.
For `Cc1c(F)c(Oc2cccc(NS(C)(=O)=O)c2)nc(Oc2cccc(C(=N)N)c2)c1F` the same measures were 5.31, 5.42 and 5.72.
For the compound `Cc1c(F)c(Oc2cccc(C(=N)N)c2)nc(Oc2cc(C(=O)N(C)C)cc(C(=O)N(C)C)c2)c1F`, the pKi was less than 5.30 in assay [1], 6.80 in assay [2] and 5.80 in assay [3].
On the same counts, the results for `CN(C)C(=O)c1cccc(Oc2cc(C(=O)O)cc(Oc3cc(C(=N)N)ccc3O)n2)c1` are 6.31, 8.51 and 6.82.
In the case of `Cc1ccc(N(C)C)cc1Oc1nc(Oc2cccc(C(=N)N)c2)c(F)c(C)c1F`, the pKi in assay [1], in assay [2] and in assay [3] was less than 5.30 in each case.
Consider `Cc1cn(-c2cccc(Oc3cc(C(=O)O)cc(Oc4cc(C(=N)N)ccc4O)n3)c2)cn1`, for which the pKi in assay [1] is 6.19; in assay [2], 7.89; in assay [3], 6.80.
For `Cc1c(F)c(Oc2cccc(C(=N)N)c2)nc(Oc2cc(C(=O)N(C)C)cc(O)c2O)c1F` the same measures were less than 5.30, less than 5.30 and 5.47.
For the compound `Cc1c(F)c(Oc2cccc(C(=N)N)c2)nc(Oc2cccc(C(=O)N3CCCC3)c2)c1F`, the pKi is less than 5.30 in assay [1], 6.66 in assay [2] and 5.55 in assay [3].
On to `CC1(C)CNC(c2cccc(Oc3cc(C(=O)O)cc(Oc4cc(C(=N)N)ccc4O)n3)c2)=N1`, for which the figures for the pKi in assay [1], in assay [2] and in assay [3] were less than 5.30, 6.09 and 5.85, respectively.
For `Cc1c(F)c(Oc2cccc(C(=O)N(C)C)c2)nc(Oc2cc(C(=N)N)cc(O)c2O)c1F` the same measures were 5.92, 7.64 and 5.96.
On to `Cc1c(F)c(Oc2cccc(N(C)C)c2)nc(Oc2cc(C(=N)N)ccc2NS(C)(=O)=O)c1F`, for which the results for the pKi in assay [1], in assay [2] and in assay [3] were less than 5.30, 5.26 and less than 5.30, respectively.
In the case of `COc1c(O)cc(C(=N)N)cc1Oc1nc(Oc2cccc(C(=O)N(C)C)c2)c(F)c(C)c1F`, the pKi is less than 5.30 in assay [1], 6.80 in assay [2] and less than 5.30 in assay [3].
As for `Cc1c(F)c(Oc2cccc(C(=N)N)c2)nc(Oc2cccc(C(O)C(=O)N(C)C)c2)c1F` (stereo not drawn), the pKi in assay [1] was less than 5.30; in assay [2], 5.66; in assay [3], 5.48.
For `CCOC(=O)c1cccc(Oc2nc(Oc3cccc(C(=N)N)c3)c(F)c(C)c2F)c1` the same measures were less than 5.30, 5.28 and less than 5.30.
On the same counts, the results for `Cc1c(F)c(Oc2cccc(N)c2)nc(Oc2cccc(C(=N)N)c2)c1F` are less than 5.30, 5.48 and less than 5.30.
In the case of `Cc1c(F)c(Oc2cccc(C(=N)N)c2)nc(Oc2cccc(C(=O)N3CCCCC3)c2)c1F`, the figures for the pKi in assay [1], in assay [2] and in assay [3] were less than 5.30, 6.09 and 5.52, respectively.
For `COc1ccc(C(=O)N(C)C)cc1Oc1nc(Oc2cccc(C(=N)N)c2)c(F)c(C)c1F` the same measures were less than 5.30, less than 5.30 and 5.68.
On the same counts, the results for `Cc1c(F)c(Oc2cccc(CCC(=O)N(C)C)c2)nc(Oc2cccc(C(=N)N)c2)c1F` are less than 5.30, 5.89 and 5.31.
For `Cc1c(F)c(Oc2cccc(C(=N)N)c2)nc(Oc2ccc(Cl)c(N(C)C)c2)c1F` the same measures were 5.28, 6.30 and 6.00.
